{
  "source": "ChEMBL document CHEMBL1133941",
  "about": "“Drug design, synthesis, and evaluation of a non-sugar-based selectin antagonist” (Bioorg Med Chem Lett, 2001)",
  "key": {"[1]": {"assay": "Cell cytotoxicity of compound was evaluated In vitro in P-selectin mediated cell adhesion assay at a concentration of 30 uM", "type": "functional"}, "[2]": {"target": "T1, P-selectin (Homo sapiens) (UniProt P16109)", "T1 sequence (whole entry)": "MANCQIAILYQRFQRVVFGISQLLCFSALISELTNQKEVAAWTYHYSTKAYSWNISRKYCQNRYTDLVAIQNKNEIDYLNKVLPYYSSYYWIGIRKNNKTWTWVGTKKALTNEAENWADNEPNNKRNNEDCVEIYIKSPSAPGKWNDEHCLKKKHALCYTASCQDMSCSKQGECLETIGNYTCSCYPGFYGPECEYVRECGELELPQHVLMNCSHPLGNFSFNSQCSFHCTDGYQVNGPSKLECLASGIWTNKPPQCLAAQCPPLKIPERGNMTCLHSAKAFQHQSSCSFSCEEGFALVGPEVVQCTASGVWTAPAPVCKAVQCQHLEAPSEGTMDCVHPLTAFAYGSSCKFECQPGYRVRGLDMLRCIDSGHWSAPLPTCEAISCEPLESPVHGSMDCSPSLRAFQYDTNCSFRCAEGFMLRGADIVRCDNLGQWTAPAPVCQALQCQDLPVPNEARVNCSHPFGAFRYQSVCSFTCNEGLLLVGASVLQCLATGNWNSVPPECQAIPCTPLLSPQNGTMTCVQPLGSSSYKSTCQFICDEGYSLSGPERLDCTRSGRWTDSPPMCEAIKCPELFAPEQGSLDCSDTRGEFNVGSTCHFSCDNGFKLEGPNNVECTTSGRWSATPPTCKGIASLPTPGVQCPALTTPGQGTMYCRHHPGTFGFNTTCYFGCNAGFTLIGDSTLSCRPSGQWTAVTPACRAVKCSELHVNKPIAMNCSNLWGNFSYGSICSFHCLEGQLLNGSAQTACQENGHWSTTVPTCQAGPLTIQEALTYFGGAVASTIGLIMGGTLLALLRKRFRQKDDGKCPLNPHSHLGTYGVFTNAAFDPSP", "assay": "Inhibitory activity was evaluated In vitro in Selectin P mediated cell adhesion assay at a concentration of 30uM"}, "P-selectin": {"target": "T2, P-selectin (Homo sapiens, UniProt P16109)", "T2 sequence (P16109 whole entry)": "T1 sequence (whole entry)", "assay": "Inhibitory activity of compound against Selectin P/sLex binding was determined"}},
  "data": [
    {"smiles": "CCCCCCCCCCCCCCC(CCCCCCCCCCCCCC)CNC(=O)c1cc(CSC2OC(C)C(O)C(O)C2O)cc(C(=O)NCCC(=O)O)c1", "note": "(centres undefined)", "values": [
      {"measurement": "Death", "setting": "[1]", "value": 2.8, "unit": "%"},
      {"measurement": "inhibition", "setting": "[2]", "value": 31.3, "unit": "%"}
    ]},
    {"smiles": "CCCCCCCCCCCCCCC(CCCCCCCCCCCCCC)CNC(=O)c1cc(CSC2OC(C)C(O)C(O)C2O)cc(C(=O)NC(CCC(=O)O)C(=O)NC)c1", "note": "(centres undefined)", "values": [
      {"measurement": "Death", "setting": "[1]", "value": 5.3, "unit": "%"},
      {"measurement": "inhibition", "setting": "[2]", "value": -0.9, "unit": "%"}
    ]},
    {"smiles": "CCCCCCCCCCCCCCC(CCCCCCCCCCCCCC)C(=O)N[C@@H](CO[C@@H]1O[C@@H](C)[C@@H](O)[C@H](O)[C@@H]1O)C(=O)N[C@@H](CCC(=O)O)C(=O)NC", "values": [
      {"measurement": "Death", "setting": "[1]", "value": 1.7, "unit": "%"},
      {"measurement": "inhibition", "setting": "[2]", "value": 42.8, "unit": "%"}
    ]},
    {"smiles": "CCCCCCCCCCCCCCC(CCCCCCCCCCCCCC)CNC(=O)c1cc(CSC2OC(C)C(O)C(O)C2O)cc(C(=O)O)c1", "note": "(centres undefined)", "values": [
      {"measurement": "IC50", "setting": "P-selectin", "value": 10.6, "unit": "µM"},
      {"measurement": "Death", "setting": "[1]", "value": 1.9, "unit": "%"},
      {"measurement": "inhibition", "setting": "[2]", "value": 75.7, "unit": "%"}
    ]}
  ]
}
